Data reported in patent US20240407993A1, “PEPTIDE HAVING ANTI-AGING ACTIVITY, AND USE THEREOF” (CAREGEN CO., LTD., priority 2021, published 2024).

Experiments:
[1] = tested on: Col1a1; test: Col1a1 mRNA level decreased by UV irradiation, RT-PCR in fibroblasts; type: cell-based, mouse; details: NIH3T3 cells, 8 J/cm^2 UVA, peptide 1, 10, 50 μM, 6 hours after irradiation; FIGS. 5A, 5B
Experimental: The expression of genes related to extracellular matrix components is inhibited when irradiated with UV.
(§1) First, NIH3T3 cells were seeded in a 6-well plate at a cell density of 5×10^5 cell/well, and then the cells were cultured in DMEM medium containing 10% fetal bovine serum (FBS) for 24 hours. The cultured cells were washed once with serum free DMEM medium, and then the peptide of the present invention was mixed in 1 mL of the serum free DMEM medium at each of concentrations of 1, 10, and 50 μM, and dispensed into the cells. A positive control (PC) was treated with 50 μM of Quercetin instead of the above peptide. The cells were cultured in a CO2 incubator at 37° C. for 1 hour.
The medium of the cultured cells was transferred to a tube (e-tube), 1 ml of PBS was added, and irradiation was performed with 8 J/cm^2 of UVA using a UV irradiator (VILBER LOURMAT, Cat No.: 3102-BSU, France). After removing PBS, 900 μL of the medium transferred to the tube was dispensed, and culture was performed in a CO2 incubator at 37° C. for 6 hours. The cultured cells were washed twice with PBS, and then RNA was extracted from the cells using easy blue (iNtRON, Cat. No.: 17061, Korea). The amount of RNA extracted was quantified, 1,000 ng of RNA was added per tube, and RT reaction was performed using a kit (enzynomics, Cat. No.: RT200, Korea). […]

[2] = tested on: AQP3; test: AQP3 mRNA level decreased by UV irradiation, RT-PCR in keratinocytes; type: cell-based, human; details: HaCaT cells, 20 mJ/cm^2 UVB, peptide 1, 10, 50 μM, 4 hours after irradiation; FIGS. 7A, 7C
Experimental: The expression of genes related to aging is inhibited when irradiated with UV.
as §1, with “First, HaCaT” for “First, NIH3T3”, “with 2.5 mM” for “with 50 μM”, “of N-Acetylcysteine (NaC)” for “of Quercetin”, “peptide.” for “peptide. The cells were cultured in a CO2 incubator at 37° C. for 1 hour.”
The cells were cultured in a CO2 incubator at 37° C. for 1 hour. The medium of the cultured cells was transferred to a tube (e-tube), 1 ml of PBS was added, and irradiation was performed with 20 mJ/cm^2 of UVB using a UV irradiator (VILBER LOURMAT, Cat No.: 3102-BSU, France). After removing PBS, 900 μL of the medium transferred to the tube was added, and culture was performed in a CO2 incubator at 37° C. for 4 hours. The cultured cells were washed twice with PBS, and then RNA was extracted from the cells using easy blue (iNtRON, Cat. No.: 17061, Korea). The extracted RNA was subjected to RT reaction using a kit (enzynomics, Cat. No.: RT200, Korea). Thereafter, RT-PCR was performed using a PCR kit (enzynomics, Cat. No.: R581T, Korea). […]

LCACCLHNCNECQ
mRNA level of Col1a1 decreased by UV irradiation [1]: increased again | mRNA level of AQP3 decreased by UV irradiation [2]: increased again
